{
  "source": "patent US8299054B2",
  "about": "“Cyclic 11-beta hydroxysteroid dehydrogenase type 1 inhibitors” (Bristol-Myers Squibb Company, priority 2006, dated 2012)",
  "data": [
    {"target": "T1, 11beta-HSD1 (Mus musculus, UniProt P50172)", "T1 construct": "from tissue; host or cells: whole animal: diet induced obese (DIO) mice, Jackson Laboratory", "T1 sequence (P50172 whole entry)": "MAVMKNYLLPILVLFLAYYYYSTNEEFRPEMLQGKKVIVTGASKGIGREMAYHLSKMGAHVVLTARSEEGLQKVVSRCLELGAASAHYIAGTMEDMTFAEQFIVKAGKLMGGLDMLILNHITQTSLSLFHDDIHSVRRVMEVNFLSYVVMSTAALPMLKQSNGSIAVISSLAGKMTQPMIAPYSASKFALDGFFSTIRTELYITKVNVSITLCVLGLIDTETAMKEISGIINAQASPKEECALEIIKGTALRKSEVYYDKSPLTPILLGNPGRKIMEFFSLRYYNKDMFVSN", "assay": "In vivo inhibition of 11beta-HSD1: DHC administration to DIO mice, plasma corticosterone AUC", "conditions": "30 mpK, oral, DHC 10 mg/kg 60 minutes after compound", "units": {"% inhibition": "%"}, "protocol": "Studies were conducted utilizing diet induced obese (DIO) mice obtained from Jackson Laboratory (ME, USA). These mice were fed a 60% fat diet (Research Diets D12492) soon after weaning and kept on this diet for 24 weeks. These mice were individually housed. All mice were housed under controlled temperature (23° C.) and lighting (12 hours of light between 6 am to 6 pm, 12 hours of dark) with free access to water. The animals continued on this diet and were utilized for experimentation at 30 to 32 weeks of age, at which time these mice weighed 45 to 55 grams.\nThe basic model of 11-dehydrocorticosterone (DHC) administration to mice to produce corticosterone has been reported in the literature for clinical and preclinical evaluation of the activity of 11 β HSD. Essentially DHC (Steraloids INC, Newport R.I.), was suspended in the vehicle at a concentration of 10 mg/kg in a volume of 7.5 ml/kg of mouse body weight. […] Plasma was separated and collected and immediately frozen at −20° C. until corticosterone analysis could be assessed.\nPlasma Corticosterone was measured using an EIA (IDS AC-14F1). Samples were measured at (1:2) for the −30 (or −60 minute) and 0 time point and (1:10) for the 30, 60 and 120 minutes time points. AUC was calculated using Graphpad and the zero timepoint was used as the baseline. One way ANOVA was calculated using Sigmastat. […]", "values": [
      {"smiles": "O=C(CC1(c2ccc(F)cc2)C2CC3CC1CC(C2)C3O)N1CC(O)C1", "note": "(centres unmarked) [Example 217]", "% inhibition": 67},
      {"smiles": "CNC(=O)OC1CN(C(=O)CC2(c3ccccc3)C3CC4CC2CC(C3)C4O)C1", "note": "(single isomer, unassigned) [Example 242]", "% inhibition": 65}
    ]},
    {"target": "recombinant human 11beta-HSD1 (Homo sapiens, UniProt P28845)", "sequence (P28845 whole entry)": "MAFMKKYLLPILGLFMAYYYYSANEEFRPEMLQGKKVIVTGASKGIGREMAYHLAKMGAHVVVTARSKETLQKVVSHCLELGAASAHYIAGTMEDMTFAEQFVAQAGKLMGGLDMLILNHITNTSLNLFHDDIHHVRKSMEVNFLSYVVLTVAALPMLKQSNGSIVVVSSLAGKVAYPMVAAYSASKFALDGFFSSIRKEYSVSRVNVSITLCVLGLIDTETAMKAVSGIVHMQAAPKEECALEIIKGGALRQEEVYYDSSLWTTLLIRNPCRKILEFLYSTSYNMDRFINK", "assay": "11β-HSD-1 SPA Enzyme Assay (Scintillation Proximity assay, microsomes of transfected HEK 293 EBNA cells)", "conditions": "not given", "units": {"IC50": "nM"}, "values": [
      {"smiles": "O=C(O)C1(Cc2cccc(F)c2)C2CC3CC(C2)CC1C3", "note": "(centres unmarked) [Example 132]", "IC50": 15},
      {"smiles": "O=C(O)C(C(=O)N1CC(O)C1)C1(c2ccc(F)cc2)C2CC3CC(C2)CC1C3", "note": "(centres unmarked) [Example 190]", "IC50": 9120},
      {"smiles": "O=C(CC1(c2ccc(F)cc2)C2CC3CC(C2)CC1C3)N1CC(Oc2ccccc2)C1", "note": "(centres unmarked) [Example 174]", "IC50": 1},
      {"smiles": "O=C(C[C@]1(Cc2ccccc2)C2CC3CC1C[C@@](O)(C3)C2)N1CC(O)C1", "note": "[Example 122]", "IC50": 253},
      {"smiles": "CNC(=O)NC1CN(C(=O)CC2(c3ccccc3)C3CC4CC2CC(C3)C4O)C1", "note": "(centres unmarked) [Example 212]", "IC50": 127},
      {"smiles": "O=C(O)C1CN(C(=O)C2CN(C(=O)CC3(Cc4ccccc4)C4CC5CC(C4)CC3C5)C2)C1", "note": "(centres unmarked) [Example 106]", "IC50": 457},
      {"smiles": "CS(=O)(=O)NC(=O)CC1(c2ccc(F)cc2)C2CC3CC(C2)CC1C3", "note": "(centres unmarked) [Example 22]", "IC50": 159},
      {"smiles": "O=C(CC1(c2ccc(F)cc2)C2CC3CC(C2)CC1C3)N1CC[C@H](O)C1", "note": "(single isomer, unassigned) [Example 302]", "IC50": 2.4},
      {"smiles": "CCN(CC)C(=O)CC1(c2ccc(F)cc2)C2CC3CC1CC(F)(C3)C2", "note": "(centres unmarked) [Example 307]", "IC50": 383},
      {"smiles": "O=C(CC1(c2ccccc2)C2CC3CC1CC(C2)C3O)N1CCC[C@@H](O)C1", "note": "(single isomer, unassigned) [Example 281]", "IC50": 175},
      {"smiles": "C=C1CC2CCC(C1)C2(CC(=O)O)c1ccc(F)cc1", "note": "(centres unmarked) [Example 134]", "IC50": 30},
      {"smiles": "CC(C)(O)CNC(=O)OC1CN(C(=O)CC2(c3ccccc3)C3CC4CC2CC(C3)C4O)C1", "note": "(centres unmarked) [Example 243]", "IC50": 16},
      {"smiles": "O=C(N1CC(O)C1)C1(Cc2ccccc2Cl)C2CC3CC(C2)CC1C3", "note": "(centres unmarked) [Example 37]", "IC50": 15},
      {"smiles": "CNC(=O)OC1CN(C(=O)C2(Cc3ccc(Cl)cc3)C3CC4CC(C3)CC2C4)C1", "note": "(centres unmarked) [Example 240]", "IC50": 67},
      {"smiles": "O=C(CC1(c2ccccc2)C2CC3CC1CC(C2)C3O)N1CC(CO)C1", "note": "(single isomer, unassigned) [Example 265]", "IC50": 6.1},
      {"smiles": "COC(=O)C1CN1C(=O)CC1(c2ccc(F)cc2)C2CC3CC(C2)CC1C3", "note": "(centres unmarked) [Example 79]", "IC50": 81},
      {"smiles": "CNC(=O)OC1CN(C(=O)C[C@]2(c3ccc(F)cc3)C3CC4CC2C[C@](C(N)=O)(C4)C3)C1", "note": "[Example 32]", "IC50": 21},
      {"smiles": "CC1(CC(=O)N2CC(NC(=O)OCc3ccccc3)C2)C2CC3CC1CC(C2)C3O", "note": "(centres unmarked) [Example 183]", "IC50": 182},
      {"smiles": "O=C(NCc1nnn[nH]1)OC1CN(C(=O)CC2(c3ccccc3)C3CC4CC2CC(C3)C4O)C1", "note": "(single isomer, unassigned) [Example 259]", "IC50": 75},
      {"smiles": "O=C(NC1CCN(C(=O)CC2(c3ccc(F)cc3)C3CC4CC(C3)CC2C4)C1)OCc1ccccc1", "note": "(centres unmarked) [Example 305]", "IC50": 28},
      {"smiles": "O=C(O)COC1CN(C(=O)CC2(c3ccc(F)cc3)C3CC4CC(C3)CC2C4)C1", "note": "(centres unmarked) [Example 117]", "IC50": 90},
      {"smiles": "Cc1noc(C)c1CC1(C(=O)O)C2CC3CC(C2)CC1C3", "note": "(centres unmarked) [Example 140]", "IC50": 651},
      {"smiles": "O=C(O)C1(Cc2coc(-c3ccc(F)cc3)n2)C2CC3CC(C2)CC1C3", "note": "(centres unmarked) [Example 55]", "IC50": 2980},
      {"smiles": "O=C(CC1(c2ccccc2)C2CC3CC1CC(C2)C3O)N1CCC[C@H](O)C1", "note": "(single isomer, unassigned) [Example 279]", "IC50": 260},
      {"smiles": "O=C(CC1(c2ccc(F)cc2)C2CC3CC(C2)CC1C3)N1CCC(OCc2ccccc2)C1", "note": "(centres unmarked) [Example 303]", "IC50": 4.7},
      {"smiles": "O=C(C[C@]1(Cc2ccccc2Cl)C2CC3CC1C[C@](O)(C3)C2)N1CC(O)C1", "note": "[Example 167]", "IC50": 20},
      {"smiles": "COC(=O)NC1CN(C(=O)CC2(c3ccc(F)cc3)C3CC4CC2CC(C3)O4)C1", "note": "(centres unmarked) [Example 235]", "IC50": 520},
      {"smiles": "CC(C)c1ccc(C2(CC(=O)N3CC(O)C3)C3CC4CC2CC(C3)C4O)cc1", "note": "(centres unmarked) [Example 292]", "IC50": 2.8},
      {"smiles": "O=C(C[C@]1(c2ccc(F)cc2)C2CC3CC1C[C@@](C(=O)O)(C3)C2)N1CC(O)C1", "note": "[Example 181]", "IC50": 128},
      {"smiles": "CNC(=O)OC1CN(C(=O)CC2(c3ccccc3)C3CC4CC2CC(C3)C4O)C1", "note": "(single isomer, unassigned) [Example 242]", "IC50": 8.8},
      {"smiles": "O=C(O)C1(CCc2ccccc2)C2CC3CC(C2)CC1C3", "note": "(centres unmarked) [Example 136]", "IC50": 1150},
      {"smiles": "CC(C(=O)N1CC(O)C1)C1(c2ccc(F)cc2)C2CC3CC(C2)CC1C3", "note": "(centres unmarked) [Example 188]", "IC50": 121},
      {"smiles": "C=CCO[C@]12CC3CC(C1)[C@](CC(=O)N1CC(O)C1)(c1ccc(F)cc1)C(C3)C2", "note": "[Example 98]", "IC50": 1.6},
      {"smiles": "O=C(O)COC1(c2ccc(F)cc2)C2CC3CC(C2)CC1C3", "note": "(centres unmarked) [Example 8]", "IC50": 633},
      {"smiles": "CN(CCO)C(=O)CC1(c2ccc(F)cc2)C2CC3CC(C2)CC1C3", "note": "(centres unmarked) [Example 304]", "IC50": 25},
      {"smiles": "O=C(CC1(c2ccccc2)C2CC3CC1CC(C2)C3O)N1C[C@H](O)CO1", "note": "(single isomer, unassigned) [Example 270]", "IC50": 16},
      {"smiles": "CNC(=O)OC1CN(C(=O)CC2(c3ccc(F)cc3)C3CC4CC2CC(C3)O4)C1", "note": "(centres unmarked) [Example 236]", "IC50": 274},
      {"smiles": "O=C(CC1(c2ccccc2)C2CC3CC1CC(C2)C3O)N1CCSC1", "note": "(centres unmarked) [Example 247]", "IC50": 3},
      {"smiles": "CS(=O)(=O)NC(=O)C1CN(C(=O)CC2(c3ccccc3)C3CC4CC2CC(C3)C4O)C1", "note": "(centres unmarked) [Example 250]", "IC50": 1720},
      {"smiles": "O=C(O)CC1(Cc2ccccc2)C2CCCC1CCC2", "note": "(centres unmarked) [Example 49]", "IC50": 97},
      {"smiles": "N#Cc1ccc(OC2CN(C(=O)CC3(c4ccc(F)cc4)C4CC5CC(C4)CC3C5)C2)nc1", "note": "(centres unmarked) [Example 182]", "IC50": 2.4},
      {"smiles": "COC(=O)NC1CN(C(=O)C[C@]2(c3ccc(F)cc3)C3CC4CC2C[C@](C(N)=O)(C4)C3)C1", "note": "[Example 210]", "IC50": 316},
      {"smiles": "O=C(CC1(c2ccccc2)C2CC3CC1CC(C2)C3O)N1CC(c2nnc3ccccn23)C1", "note": "(centres unmarked) [Example 35]", "IC50": 636}
    ]},
    {"target": "recombinant human 11beta-HSD1 (Homo sapiens, UniProt P28845)", "assay": "11β-HSD-1 SPA Enzyme Assay (Scintillation Proximity assay, microsomes of transfected HEK 293 EBNA cells)", "conditions": "read-out: h HSD1 IC50; human microsomes, 40 nM 3H-cortisone, 4 hrs at room temperature", "units": {"IC50": "nM"}, "values": [
      {"smiles": "CC1(CC(=O)N2CC(O)(c3ccc(F)cc3)C2)C2CC3CC1CC(C2)C3O", "note": "(centres unmarked) [Example 213]", "IC50": 44},
      {"smiles": "O=C(CC1(c2ccc(F)cc2)C2CCCC1CC(O)C2)N1CC(O)C1", "note": "(centres unmarked) [Example 23, 2-(9-(4-Fluorophenyl)-3-hydroxybicyclo[3.3.1]nonan-9-yl)-1-(3-hydroxyazetidin-1-yl)ethanone]", "IC50": 8.3},
      {"smiles": "CNC(=O)OCC1CN(C(=O)CC2(c3ccccc3)C3CC4CC2CC(C3)C4O)C1", "note": "(centres unmarked) [Example 216]", "IC50": 5.1},
      {"smiles": "Cc1nnc(COC2CN(C(=O)CC3(c4ccccc4)C4CC5CC3CC(C4)C5O)C2)o1", "note": "(centres unmarked) [Example 36]", "IC50": 14},
      {"smiles": "Cc1nnc(C2CN(C(=O)CC3(c4ccccc4)C4CC5CC3CC(C4)C5O)C2)o1", "note": "(centres unmarked) [Example 34]", "IC50": 196},
      {"smiles": "Cn1nnc(C2CN(C(=O)CC3(c4ccccc4)C4CC5CC3CC(C4)C5O)C2)n1", "note": "(centres unmarked) [Example 28]", "IC50": 10},
      {"smiles": "CS(=O)(=O)NC1CN(C(=O)CC2(Cc3ccccc3)C3CC4CC2CC(C3)C4O)C1", "note": "(centres unmarked) [Example 195]", "IC50": 105}
    ]},
    {"system": "hepatic glucose production", "assay": "not given", "conditions": "patients with type 2 diabetes, seven days, versus placebo; cited from earlier work", "values": [
      {"smiles": "CC1(C)[C@@H](OC(=O)CCC(=O)O)CC[C@]2(C)[C@H]3C(=O)C=C4[C@@H]5C[C@@](C)(C(=O)O)CC[C@]5(C)CC[C@@]4(C)[C@]3(C)CC[C@@H]12", "note": "[carbenoxolone]", "hepatic glucose production": "decrease in hepatic glucose production"}
    ]}
  ]
}
